For series [1], the target named is T1, Peroxisome proliferator-activated receptor alpha (Homo sapiens, UniProt Q07869).
T1 sequence (Q07869 whole entry): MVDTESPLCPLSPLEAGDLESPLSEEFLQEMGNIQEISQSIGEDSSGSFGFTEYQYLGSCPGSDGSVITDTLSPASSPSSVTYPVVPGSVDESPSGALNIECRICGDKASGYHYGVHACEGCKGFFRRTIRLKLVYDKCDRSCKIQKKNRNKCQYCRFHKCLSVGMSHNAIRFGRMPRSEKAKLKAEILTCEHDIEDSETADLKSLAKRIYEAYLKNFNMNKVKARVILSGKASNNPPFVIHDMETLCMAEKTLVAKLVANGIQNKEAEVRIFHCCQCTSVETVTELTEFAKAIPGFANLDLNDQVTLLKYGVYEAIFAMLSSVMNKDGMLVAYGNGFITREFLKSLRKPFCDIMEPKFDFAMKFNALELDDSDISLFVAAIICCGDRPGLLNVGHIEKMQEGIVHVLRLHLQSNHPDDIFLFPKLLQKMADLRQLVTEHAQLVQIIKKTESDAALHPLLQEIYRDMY
Put plainly: Agonist activity at human PPARalpha expressed in african green monkey CV1 cells by Gal4 transactivation assay. The series is classed as functional, cell-based, CV-1.

Series [2] addresses T2, Peroxisome proliferator-activated receptor delta (Homo sapiens, UniProt Q03181).
T2 sequence (Q03181 whole entry): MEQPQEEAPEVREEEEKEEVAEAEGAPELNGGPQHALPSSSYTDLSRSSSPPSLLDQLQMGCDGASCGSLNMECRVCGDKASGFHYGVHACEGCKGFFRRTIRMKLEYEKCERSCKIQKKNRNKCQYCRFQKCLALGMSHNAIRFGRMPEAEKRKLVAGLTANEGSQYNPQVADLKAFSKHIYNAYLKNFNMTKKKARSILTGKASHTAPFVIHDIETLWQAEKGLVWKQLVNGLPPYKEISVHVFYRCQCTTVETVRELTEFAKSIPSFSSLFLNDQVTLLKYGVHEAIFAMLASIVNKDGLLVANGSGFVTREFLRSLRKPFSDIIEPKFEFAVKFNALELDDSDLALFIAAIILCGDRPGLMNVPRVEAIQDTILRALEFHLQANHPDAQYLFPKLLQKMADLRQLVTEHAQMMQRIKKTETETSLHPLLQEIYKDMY
Put plainly: Agonist activity at human PPARdelta expressed in african green monkey CV1 cells by Gal4 transactivation assay. The series is classed as functional, cell-based, CV-1.

Series [3] addresses T1, Peroxisome proliferator-activated receptor alpha. As to the kind of experiment: Displacement of radiolabeled GW-2433 from human PPARalpha ligand binding domain expressed in Escherichia coli.
Series [4] deals with T2, Peroxisome proliferator-activated receptor delta. As to the kind of experiment: Displacement of radiolabeled GW-2433 from human PPARdelta ligand binding domain expressed in Escherichia coli.
The target in series [5] is T3, Peroxisome proliferator-activated receptor gamma (Mus musculus, UniProt P37238).
T3 sequence (P37238 whole entry): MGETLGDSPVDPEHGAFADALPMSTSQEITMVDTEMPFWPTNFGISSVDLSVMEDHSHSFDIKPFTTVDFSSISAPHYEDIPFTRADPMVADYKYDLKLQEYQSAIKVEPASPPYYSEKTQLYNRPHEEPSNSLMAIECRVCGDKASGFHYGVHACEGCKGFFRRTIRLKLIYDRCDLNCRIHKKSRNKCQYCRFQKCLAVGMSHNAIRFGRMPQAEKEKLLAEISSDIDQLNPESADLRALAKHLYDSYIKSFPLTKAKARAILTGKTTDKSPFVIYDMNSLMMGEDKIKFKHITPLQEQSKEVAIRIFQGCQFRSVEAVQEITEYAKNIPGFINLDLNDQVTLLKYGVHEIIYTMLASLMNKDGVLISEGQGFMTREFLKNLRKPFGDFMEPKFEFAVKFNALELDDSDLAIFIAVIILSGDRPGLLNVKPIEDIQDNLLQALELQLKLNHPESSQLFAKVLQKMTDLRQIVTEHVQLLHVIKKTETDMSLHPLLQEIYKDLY
As to the kind of experiment: Agonist activity at mouse PPARgamma expressed in african green monkey CV1 cells by Gal4 transactivation assay. The format is functional, cell-based, CV-1.

Series [6] has as its target T4, Peroxisome proliferator-activated receptor alpha (Mus musculus, UniProt P23204).
T4 sequence (P23204 whole entry): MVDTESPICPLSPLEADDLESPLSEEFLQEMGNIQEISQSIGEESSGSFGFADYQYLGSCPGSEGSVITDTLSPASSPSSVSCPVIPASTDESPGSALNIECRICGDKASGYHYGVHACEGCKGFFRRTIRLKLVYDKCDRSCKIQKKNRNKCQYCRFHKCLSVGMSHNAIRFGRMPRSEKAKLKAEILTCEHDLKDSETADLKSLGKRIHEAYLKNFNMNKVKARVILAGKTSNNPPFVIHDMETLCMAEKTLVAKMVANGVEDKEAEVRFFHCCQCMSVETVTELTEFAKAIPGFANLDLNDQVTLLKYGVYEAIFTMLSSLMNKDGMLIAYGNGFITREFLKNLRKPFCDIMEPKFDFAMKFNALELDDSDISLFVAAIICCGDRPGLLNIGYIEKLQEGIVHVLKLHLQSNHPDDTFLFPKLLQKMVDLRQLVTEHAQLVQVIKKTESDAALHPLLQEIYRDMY
As to the kind of experiment: Agonist activity at mouse PPARalpha expressed in african green monkey CV1 cells by Gal4 transactivation assay. The series is classed as functional, cell-based, CV-1.

The target in series [7] is T5, Peroxisome proliferator-activated receptor alpha (Mus musculus) (UniProt P23204).
T5 sequence (whole entry): T4 sequence (P23204 whole entry)
As to the kind of experiment: Agonist activity at mouse PPARalpha expressed in african green monkey CV1 cells by Gal4 transactivation assay relative to SW516. The following applies: CV-1. The format is functional, cell-based.

Series [8] concerns the target T6, Peroxisome proliferator-activated receptor delta (Mus musculus, UniProt P35396).
T6 sequence (P35396 whole entry): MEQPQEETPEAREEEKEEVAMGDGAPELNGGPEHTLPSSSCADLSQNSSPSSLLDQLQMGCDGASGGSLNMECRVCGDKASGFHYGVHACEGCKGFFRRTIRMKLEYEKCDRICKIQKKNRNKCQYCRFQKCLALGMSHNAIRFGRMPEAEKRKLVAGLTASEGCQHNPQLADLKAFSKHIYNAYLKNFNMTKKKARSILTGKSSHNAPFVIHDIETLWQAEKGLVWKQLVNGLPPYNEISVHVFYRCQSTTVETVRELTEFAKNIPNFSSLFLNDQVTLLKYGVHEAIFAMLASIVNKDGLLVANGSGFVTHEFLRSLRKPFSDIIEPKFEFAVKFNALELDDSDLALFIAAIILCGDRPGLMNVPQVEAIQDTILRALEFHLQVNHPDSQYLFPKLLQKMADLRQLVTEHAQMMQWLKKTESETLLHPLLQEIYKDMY
Put plainly: Agonist activity at mouse PPARdelta expressed in african green monkey CV1 cells by Gal4 transactivation assay. The series is classed as functional, cell-based, CV-1.

Series [9] is described as follows: Oral bioavailability in CD rat at 1 mg/kg, iv. The format is ADME, organism-based. Conditions: in vivo.
The nature of series [10]: Clearance in CD rat at 1 mg/kg, iv and 5 mg/kg, po. Conditions: in vivo. The series is classed as ADME, organism-based.
Series [11] is described as follows: Volume of distribution at steady state in CD rat at 1 mg/kg, iv and 5 mg/kg, po. The series is classed as ADME, organism-based. Conditions: in vivo, read-out: Vdss.
Series [12] in a line: Half life in CD rat at 1 mg/kg, iv and 5 mg/kg, po. The format is ADME, organism-based. The following applies: in vivo.
The nature of series [13]: AUC in CD rat at 5 mg/kg, po. The format is ADME, organism-based. Details: dose 5 mg/kg, route oral. The following applies: plasma.
Series [14] in a line: AUC in Zucker fa/fa rat at 5 mg/kg, po. The series is classed as ADME, organism-based. Details: dose 5 mg/kg, route oral. The following applies: plasma.
For series [15], the system named is Rattus norvegicus. As to the kind of experiment: Antidiabetic activity in Zucker fa/fa rat assessed as reduction in plasma glucose level in at 40 mg/kg, po twice a day for 5 days. The format is functional. Details: scale not given: the % may be the effect or the level left.
For series [16], the system named is Rattus norvegicus. As to the kind of experiment: Antidiabetic activity in Zucker fa/fa rat assessed as reduction in triglyceride level in at 40 mg/kg, po twice a day for 5 days. The format is functional. Details: scale not given: the % may be the effect or the level left.
Series [17] has as its system Rattus norvegicus. As to the kind of experiment: Antidiabetic activity in Zucker fa/fa rat assessed as reduction in hematocrit level in at 40 mg/kg, po twice a day for 5 days. Details: scale not given: the % may be the effect or the level left. The format is functional.
Series [18] can be described thus: Cmax in CD rat at 1 mg/kg, iv and 5 mg/kg, po. The format is ADME, organism-based. Conditions: in vivo.

One compound from ChEMBL document CHEMBL1156860, “Synthesis and biological activities of novel indole derivatives as potent and selective PPARgamma modulators” (Bioorg Med Chem Lett, 2010) can be followed below.

Broadly, the EC50 is the concentration at which the effect is half-maximal. The IC50 is the concentration at which inhibition is half-maximal. In general, bioavailability refers to the share of a dose that reaches the circulation, judged against a reference dose that is usually intravenous. In general, half-life refers to the time needed for the level to fall by half in the phase considered. The term AUC denotes the area under the concentration-time curve, a measure of exposure. As a reminder, the Cmax is the peak of the concentration-time curve.

For `CCC(NC(=O)c1ccc2c(c1)c(C)c(C)n2Cc1ccc(-c2ccccc2C(=O)O)cc1)c1ccccc1` (stereo not drawn), the EC50 is > 10 µM in series [1]; > 10 µM in [2]; 0.002 µM in [5]; 5.51 µM in [6]; > 10 µM in [8]. In addition, the IC50 in series [3] and in series [4] was > 10 µM throughout. Also, the Activity is 79% in series [7], 25% in the series on Rattus norvegicus [15], 49% in the series with Rattus norvegicus [16] and >10% in the series on Rattus norvegicus [17]. Besides, the bioavailability in series [9] worked out at 52%. Further, the clearance in series [10] worked out at 40 mL/min/kg. Also, in [11], the Vd is 17 L/kg. This compound showed a half-life in [12] of 4.58 h. The AUC in series [13] worked out at 1150 ng·h/mL; in series [14], 1330 ng·h/mL. Also, the concentration in [18] peaked (Cmax) at 319 ng/mL.
